Data from article PMC4556431 (Angewandte Chemie (International ed. in English), 2015).

Target: Cif (CFTR inhibitory factor) (Pseudomonas aeruginosa, UniProt A0A0H2ZD27)
Experiment: epoxide hydrolase inhibition assay
Assay type: biochemical

Chain of Cif (CFTR inhibitory factor) (A0A0H2ZD27 25-319 limits assumed): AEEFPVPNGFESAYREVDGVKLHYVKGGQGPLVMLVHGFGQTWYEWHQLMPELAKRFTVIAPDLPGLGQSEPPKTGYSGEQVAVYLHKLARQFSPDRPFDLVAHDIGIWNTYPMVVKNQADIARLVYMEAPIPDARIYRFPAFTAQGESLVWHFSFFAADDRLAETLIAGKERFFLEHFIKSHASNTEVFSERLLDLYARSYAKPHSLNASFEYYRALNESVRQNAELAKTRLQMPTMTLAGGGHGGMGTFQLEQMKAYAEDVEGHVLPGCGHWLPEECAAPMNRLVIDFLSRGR

N[C@@H](Cc1cc(I)c(Oc2cc(I)c(O)c(I)c2)c(I)c1)C(=O)O [compound 9, 9]
IC50: > 100 µM
